Data taken from patent publication US7425572B2, “Use of dioxindoindazoles and dioxoloindazoles for treating glaucoma” (Alcon, Inc., priority 2004, dated 2008).
Structures can show the parent of a compound that is named as a salt.

Assays:
[1] = target: T1, 5-HT2 receptor (A7r5 rat vascular smooth muscle cells) (Rattus norvegicus, UniProt P14842); experiment: 5-HT2 functional assay: [Ca2+]i mobilization (FLIPR); assay type: cell-based; conditions: for EC50: [Ca2+]i mobilization; for Emax: percentage of maximum 5-HT-induced response, read-out: Efficacy (Emax, %)
T1 construct: endogenous in cells; host or cells: A7r5 rat vascular smooth muscle cells
Protocol: Method 2: 5-HT2 Functional Assay: [Ca^2+]i Mobilization
The receptor-mediated mobilization on intracellular calcium ([Ca^2+]i) was studied using the Fluorescence Imaging Plate Reader (FLIPR) instrument. Rat vascular smooth muscle cells, A7r5, were grown in a normal media of DMEM/10% FBS and 10 μg/mL gentamycin. Confluent cell monolayers were trypsinized, pelleted, and re-suspended in normal media. Cells were seeded in a […] volume at a density of 20,000 cells/well in a black wall, 96-well tissue culture plate and grown for 2 days.
On the day of the experiment, one vial of FLIPR Calcium Assay Kit dye was re-suspended in 50 mL of a FLIPR buffer consisting of Hank's Balanced Salt Solution (HBSS), 20 mM HEPES, and 2.5 mM probenecid, pH 7.4. Cells were loaded with the calcium-sensitive dye by addition of an equal volume (50 μL) to each well of the 96-well plate and incubated with dye for 1 h at 23° C.
Typically, test compounds were stored at 25 μM in 50% DMSO/50% Ethanol solvent. Compounds were diluted 1:50 in 20% DMSO/20% Ethanol. For “hit” screening, compounds were further diluted 1:10 in FLIPR buffer and tested at a final concentration of 10 μM. For dose-response experiments, compounds were diluted 1:50 in FLIPR buffer and serially diluted 1:10 to give a 5- or 8-point dose-response curve.
The compound plate and cell plate were placed in the FLIPR instrument. At the beginning of an experimental run, a signal test was performed to check the basal fluorescence signal from the dye-loaded cells and the uniformity of the signal across the plate. The basal fluorescence was adjusted between 8000-12000 counts by modifying the exposure time, the camera F-stop, or the laser power. Instrument settings for a typical assay were the following: laser power 0.3-0.6 W, camera F-stop F/2, and exposure time 0.4 sec. An aliquot (25 μL) of the test compound was added to the existing 100 μL dye-loaded cells at a dispensing speed of 50 μL/sec. Fluorescence data were collected in real-time at 1.0 sec intervals for the first 60 secs and at 6.0 sec intervals for an additional 120 secs. Responses were measured as peak fluorescence intensity minus basal and where appropriate were expressed as a percentage of a maximum 5-HT-induced response. When the compounds were tested as antagonists against 10 μM 5-HT, they were incubated with the cells for 15 minutes prior to the addition of 5-HT.

[2] = system: lasered (hypertensive) eyes of conscious cynomolgus monkeys; experiment: Acute IOP response in lasered (hypertensive) eyes of conscious cynomolgus monkeys; assay type: in vivo; conditions: lasered monkey eye
Protocol: Method 3: Acute IOP Response in Lasered (Hypertensive) Eyes of Conscious Cynomolgus Monkeys
Intraocular pressure (IOP) can be determined with an Alcon Pneumatonometer after light corneal anesthesia with 0.1% proparacaine. Eyes are washed with saline after each measurement. After a baseline IOP measurement, test compound is instilled in one 30 μL aliquot to the right eyes only of nine cynomolgus monkeys. Vehicle is instilled in the right eyes of six additional animals. Subsequent IOP measurements are taken at 1, 3, and 6 hours.
The above method was used to determine the IOP lowering efficacy of the compound of Example 1 (dosed at a concentration of 300 μg).

[3] = 1 hr after topical dose of 300 μg
[4] = 3 hrs after topical dose of 300 μg
[5] = 6 hrs after topical dose of 300 μg

T1 sequence (P14842 whole entry): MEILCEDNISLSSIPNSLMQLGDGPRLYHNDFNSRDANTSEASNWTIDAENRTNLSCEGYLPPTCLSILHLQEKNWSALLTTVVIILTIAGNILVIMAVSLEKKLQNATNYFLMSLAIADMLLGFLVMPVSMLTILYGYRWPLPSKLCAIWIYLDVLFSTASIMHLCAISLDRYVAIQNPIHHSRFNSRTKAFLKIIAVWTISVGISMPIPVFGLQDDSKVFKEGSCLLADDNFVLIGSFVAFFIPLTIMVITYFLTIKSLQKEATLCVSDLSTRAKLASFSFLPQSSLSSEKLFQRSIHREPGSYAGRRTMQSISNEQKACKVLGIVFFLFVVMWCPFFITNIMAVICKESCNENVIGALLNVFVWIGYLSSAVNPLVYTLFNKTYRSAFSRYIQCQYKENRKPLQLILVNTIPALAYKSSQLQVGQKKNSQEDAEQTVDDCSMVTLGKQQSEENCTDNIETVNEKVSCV

| SMILES | melting point [°C] | EC50 [1] [nM] | Emax [1] [%] | other results |
| --- | --- | --- | --- | --- |
| C[C@H](N)Cn1ncc2ccc3c(c21)O[C@@H](CO)CO3 (as salt: hydrochloride) [Example 1, [(S)-1-((S)-2-Amino-propyl)-7,8-dihydro-1H-[1,4]dioxino[2,3-g]indazol-8-yl]-methanol hydrochloride] | 202 to 203 |  |  |  |
| C[C@H](N)Cn1ncc2ccc3c(c21)O[C@@H](CO)CO3 [Example 1, [(S)-1-((S)-2-Amino-propyl)-7,8-dihydro-1H-[1,4]dioxino[2,3-g]indazol-8-yl]-methanol hydrochloride] |  | 31 | 39 | IOP % change [2, 3]: −4.3%; IOP Change mmHg [2, 3]: −2.2 mmHg; IOP % change [2, 4]: −15.8%; IOP Change mmHg [2, 4]: −6.8 mmHg; IOP % change [2, 5]: −23.6%; IOP Change mmHg [2, 5]: −9.6 mmHg |
| C[C@H](N)Cn1ncc2ccc3c(c21)O[C@H](CO)CO3.Cl [Example 2, [(R)-1-((S)-2-Aminopropyl)-7,8-dihydro-1H-[1,4]dioxino[2,3-g]indazol-8-yl]-methanol hydrochloride] | 112 to 116 | 53 | 77 |  |
| C[C@H](N)Cn1ncc2ccc3c(c21)OCCO3 [Example 3, (S)-2-(7,8-Dihydro-[1,4]dioxino[2,3-g]indazol-1-yl)-1-methyl-ethylamine hydrochloride] |  | 27 | 92 |  |
| C[C@H](N)Cn1ncc2ccc3c(c21)O[C@@H](CNS(C)(=O)=O)CO3.Cl [Example 4, N-[(S)-1-((S)-2-Amino-propyl)-7,8-dihydro-1H-[1,4]dioxino[2,3-g]indazol-8-ylmethyl]-methanesulfonamide hydrochloride] | 235 to 236 | 78 | 81 |  |
| CCS(=O)(=O)NC[C@H]1COc2ccc3cnn(C[C@H](C)N)c3c2O1.Cl [Example 5, Ethanesulfonic acid [(S)-1-((S)-2-amino-propyl)-7,8-dihydro-1H-[1,4]dioxino[2,3-g]indazol-8-ylmethyl]-amide hydrochloride] | 243 to 244 | 67 | 82 |  |
| CC(C)C(=O)NC[C@H]1COc2ccc3cnn(C[C@H](C)N)c3c2O1 [Example 6, N-[(S)-1-((S)-2-Amino-propyl)-7,8-dihydro-1H-[1,4]dioxino[2,3-g]indazol-8-ylmethyl]-isobutyramide hydrochloride] |  | 125 | 59 |  |
| COC(=O)NC[C@H]1COc2ccc3cnn(C[C@H](C)N)c3c2O1.Cl [Example 7, [(S)-1-((S)-2-Amino-propyl)-7,8-dihydro-1H-[1,4]dioxino[2,3-g]indazol-8-ylmethyl]-carbamic acid methyl ester hydrochloride] | 265 to 266 | 92 | 66 |  |
| C[C@H](N)Cn1ncc2ccc3c(c21)O[C@@H](CN)CO3 [Example 8, (S)-2-((S)-8-Aminomethyl-7,8-dihydro-[1,4]dioxino[2,3-g]indazol-1-yl)-1-methyl-ethylamine hydrochloride] |  | 232 | 54 |  |
| COC(=O)NC[C@@H]1COc2ccc3cnn(C[C@H](C)N)c3c2O1 [Example 9, [(R)-1-((S)-2-Amino-propyl)-7,8-dihydro-1H-[1,4]dioxino[2,3-g]indazol-8-ylmethyl]-carbamic acid methyl ester hydrochloride] |  | 106 | 44 |  |
